Results: PubChem BioAssay (NCI)
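Five compound concentrations were applied to cells in 96-well plates for 48 hours; endpoints were derived by simple linear interpolation of the resulting dose-response curve. TGI marks complete inhibition of growth.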

Tests used:
Assay in all cases: inhibition of tumour cell growth, NCI panel, 48 h
[1] = tested on: SR leukemia
[2] = tested on: NCI-H226 lung
[3] = tested on: HCT-116 colon
[4] = tested on: MDA-MB-435
[5] = tested on: OVCAR-5 ovarian
[6] = tested on: SK-MEL-2 melanoma
[7] = tested on: SF-295 CNS
[8] = tested on: DU-145 prostate
[9] = tested on: NCI-H522 lung
[10] = tested on: RPMI-8226 leukemia
[11] = tested on: HT29 colon

**Q.** What does the source list for `CC(=O)NC(Cc1ccc(OP(=O)(OCc2ccc([N+](=O)[O-])o2)N(C)CCCCCl)cc1)C(=O)NC(C)c1ccc(OCC2CCCCC2)c(C(N)=O)c1` (configuration not stated)?
**A.** TGI [1]: 6.42 µM; TGI [2]: 21.2 µM; TGI [3]: 5.3 µM; TGI [4]: 4.81 µM; TGI [5]: 21.2 µM; TGI [6]: 9.2 µM; TGI [7]: 16.9 µM; TGI [8]: 15.2 µM; TGI [9]: 12 µM; TGI [10]: 3.96 µM; TGI [11]: 4.83 µM

**Q.** How did the TGI [2] turn out when `C#CCn1c(=O)c(Cl)cn(/C(=C/C(=O)OCC)C(=O)OCC)c1=O` was run?
**A.** > 59.5 µM

**Q.** What about the TGI [3] of the same compound?
**A.** 14.4 µM

**Q.** What about the TGI [4] of the same compound?
**A.** 35.8 µM

**Q.** What about the TGI [5] of the same compound?
**A.** 31.7 µM

**Q.** What about the TGI [6] of the same compound?
**A.** 35.6 µM

**Q.** What about the TGI [7] of the same compound?
**A.** > 66.7 µM

**Q.** And the TGI [8]?
**A.** 33 µM

**Q.** What about the TGI [9] of the same compound?
**A.** 12.6 µM

**Q.** And the TGI [10]?
**A.** 5.28 µM

**Q.** What about the TGI [11] of the same compound?
**A.** 39.5 µM

**Q.** How did the TGI [1] turn out when `Clc1c(C(Cl)(Cl)Cl)nsc1N1CCCCC1` was run?
**A.** 36.5 µM

**Q.** What about the TGI [2] of the same compound?
**A.** 36.2 µM

**Q.** What about the TGI [3] of the same compound?
**A.** 76.6 µM

**Q.** And the TGI [4]?
**A.** 66.1 µM

**Q.** What about the TGI [5] of the same compound?
**A.** > 100 µM

**Q.** What about the TGI [7] of the same compound?
**A.** 66.8 µM

**Q.** And the TGI [8]?
**A.** > 100 µM

**Q.** And the TGI [10]?
**A.** 40.9 µM

**Q.** What about the TGI [11] of the same compound?
**A.** 38.3 µM

**Q.** Which results are given for `Nn1c(Cc2ccccc2)n[nH]c1=O`?
**A.** TGI [1]: > 100 µM; TGI [2]: > 100 µM; TGI [3]: > 100 µM; TGI [4]: > 100 µM; TGI [5]: > 100 µM; TGI [6]: > 100 µM; TGI [7]: > 100 µM; TGI [8]: > 100 µM; TGI [9]: > 100 µM; TGI [10]: > 100 µM; TGI [11]: > 100 µM

**Q.** What does the source list for `Cc1nc2ccccc2n1Cc1nnc(N)o1`?
**A.** TGI [1]: > 100 µM; TGI [3]: > 100 µM; TGI [4]: 21.3 µM; TGI [5]: > 100 µM; TGI [6]: > 100 µM; TGI [7]: > 100 µM; TGI [8]: > 100 µM; TGI [9]: > 100 µM; TGI [10]: > 100 µM; TGI [11]: > 100 µM

**Q.** Which results are given for `O=C(OCc1ccccc1)N1CCN(C(=O)OCc2ccccc2)CCN(C(=O)OCc2ccccc2)CCN(C(=O)OCc2ccccc2)CCN(C(=O)OCc2ccccc2)CC1`?
**A.** TGI [2]: > 100 µM; TGI [3]: > 100 µM; TGI [4]: > 100 µM; TGI [5]: > 100 µM; TGI [6]: > 100 µM; TGI [7]: > 100 µM; TGI [8]: > 100 µM; TGI [9]: > 100 µM

**Q.** What does the source list for `CCOc1ccc2nc(NC(NC(=O)c3cccnc3)(C(F)(F)F)C(F)(F)F)sc2c1`?
**A.** TGI [1]: > 100 µM; TGI [2]: > 100 µM; TGI [3]: > 100 µM; TGI [4]: 65.4 µM; TGI [5]: > 100 µM; TGI [6]: > 100 µM; TGI [7]: > 100 µM; TGI [8]: > 100 µM; TGI [9]: 84.2 µM; TGI [11]: 30.5 µM

**Q.** What does the source list for `CCOC(=O)C(C(=O)OCC)=C1NC2(c3ccccc3Nc3ccc(C)cc32)C(C(=O)OC)S1` (configuration not stated)?
**A.** TGI [1]: > 100 µM; TGI [2]: > 100 µM; TGI [3]: > 100 µM; TGI [4]: > 100 µM; TGI [5]: > 100 µM; TGI [6]: 63.1 µM; TGI [7]: > 100 µM; TGI [8]: > 100 µM; TGI [9]: > 100 µM; TGI [10]: > 100 µM; TGI [11]: > 100 µM

**Q.** For `Oc1ccc(O)c(CNc2ccccc2)c1`, which TGI [1] is on record?
**A.** 75.2 µM

**Q.** What about the TGI [2] of the same compound?
**A.** 78.4 µM

**Q.** And the TGI [3]?
**A.** 23.9 µM

**Q.** And the TGI [4]?
**A.** 29.4 µM

**Q.** And the TGI [5]?
**A.** 41.7 µM

**Q.** What about the TGI [6] of the same compound?
**A.** 82.2 µM

**Q.** What about the TGI [7] of the same compound?
**A.** 29.7 µM

**Q.** What about the TGI [8] of the same compound?
**A.** 32.2 µM

**Q.** What about the TGI [9] of the same compound?
**A.** 6.65 µM

**Q.** And the TGI [10]?
**A.** 3.14 µM

**Q.** What about the TGI [11] of the same compound?
**A.** > 100 µM

**Q.** What does the source list for `CC(=O)O[C@H]1C[C@H]2C(=S)Nc3ccccc3C(=S)N2C1`?
**A.** TGI [1]: > 100 µM; TGI [2]: > 100 µM; TGI [3]: > 100 µM; TGI [4]: > 100 µM; TGI [5]: > 100 µM; TGI [6]: > 100 µM; TGI [7]: > 100 µM; TGI [8]: > 100 µM; TGI [9]: > 100 µM; TGI [10]: > 100 µM; TGI [11]: > 100 µM
